Experiments:
[1] = tested on: rat aorta rings, endothelial cell microvessels; experiment: Rat aorta ring microvessel formation in fibrin gel; type: cell-based; conditions: 0.1-10 μg/ml (0.2-20 μM)
From the text: Rat aorta is carved into rings which are embedded in fibrin gels and cultured in MCDB 131 medium. Endothelial cells that detach from the aorta rings generate branching microvessels according to a method previously described (Nicosia R. F. and Ottinetti A. Growth of microvessels in serum-free matrix culture of rat aorta. Laboratory Investigation 63: 115, 1990).

[2] = tested on: tumor neovascularization; experiment: Tumor neovascularization in tumor-bearing mice; conditions: mouse, in vivo
From the text: These hitherto unknown attributes were detected while studying the effects of hypericin and of helianthrone derivatives on breast adenocarcinoma tumors induced in mice with the DA-3^HI cell line and on murine anaplastic squamous carcinoma tumors induced with the SQ-2 cell line. Both are highly metastatic tumors and if surgically resected after having reached a diameter larger than 5 mm, the mice will go on to develop metastases in the lungs and liver. The metastases cause death of the animals within approximately two months following surgery.
By preventing development of new blood vessels to supply a growing metastasis, the rapidly growing metastatic focus is deprived of nutrients and oxygen for its rapidly multiplying cells and the lesion degenerates.

[3] = tested on: U251 human glioblastoma cells; type: cell-based; conditions: glioblastoma cells in culture, complete darkness
Protocol: Human HL-60 leukemic cells were grown in RPMI-1640 supplemented with 15% fetal calf serum, […] and 100 units/ml penicillin-streptomycin. Human erythroleukemia K-562 cells (derived from a chronic myeloid leukemia pateient) were grown in the same medium supplemented with 10% fetal calf serum. These cells and the human U251 glioblastoma, U87MG glioblastoma and LAN5 neuroblastoma cells used in the experiments are available from the ATCC. All cell lines were cultured in a humidified 5% CO2/95% air atmosphere at 37° C.
Cell viability was monitored by the MTT assay which measures reduction of 3-(4,5-dimethylthiazol-2-yl)-2,5-diphenyl tetrazolium bromide to formasan by mitochondria of viable cells as described in Mossman, T., J. Immunogen., 21, 235-248 (1983). The cells are incubated with MTT for four hours at 37° C. and analyzed in an ELISA reader at 560 nm. The optical density of formasan generated by untreated cell cultures (O.D. control) is defined as one MTT unit. The number of MTT units in culture samples undergoing treatments is calculated as the ratio (O.D.sample−O.D.blank)/O.D.control).
Three human malignant cell lines were evaluated to sensitivity to dimethyl TMH in vitro. […] The medium was aspirated, the adherent monolayer was washed with phosphate-buffered saline, and cell viability was monitored by the MTI assay. […]

[4] = tested on: DA-3HI induced breast adenocarcinoma tumors; experiment: Survival after resection of DA-3HI breast adenocarcinoma tumors with hypericin; type: in vivo, BALB/c mice; conditions: for survival rate: 5 days apart
Protocol: The primary tumor size at which metastases occur in DA-3^HI-derived breast adenocarcinoma tumors was initially calibrated in BALB/c mice inoculated with 5×10^5 DA-3^HI tumor cells intradermally. […] If the resection was performed on tumors with larger diameters, the mice died of metastases. A diameter of approximately 5 mm appears to be the cutoff at which metastases begin to spread.
DA-3^HI tumors were induced in 12-week old female BALB/c mice as described above. When the tumors reached diameters of 8-10 mm the mice were divided into four groups. One group of 19 mice was left untreated and in the three other groups the tumors were surgically removed. One of the resected groups received two intraperitoneal (i.p.) injections with 200 μg hypericin (HY) each 5 days apart beginning two days prior to surgery (16 mice). Another resected group received five i.p. injections with 200 μg hypericin each, 5 days apart beginning two days prior to surgery (17 mice). One resected group was not treated with hypericin (16 mice). The mice were then followed for survival. […] However, administration of 2 i.p. injections of hypericin increased the survival rate to 35% and administration of 5 hypericin doses increased the survival rate to 60%.

[5] = tested on: SQ2 squamous cell carcinoma tumors; experiment: Survival after resection of SQ2 squamous cell carcinoma tumors with hypericin; type: in vivo, BALB/c mice; conditions: for mice alive beyond 240 days following tumor cell inoculation: resection
Protocol: In another set of experiments squamous cell carcinoma tumors were generated in BALB/c mice by inoculating 5×10^5 SQ2 cells per mouse. When the tumors reached a diameter of 1.0-1.2 cm in diameter they were removed by surgery (resected). One group of 5 mice also received three i.p injections of hypericin of 100 μg/mouse prior to surgery and two regimens of 50 μg/mouse post surgery at intervals of 5 days between each dosing. Another group of 8 mice received six hypericin i.p. injections of 100 μg/mouse prior to surgery and five regimens of 50 μg/mouse post surgery at intervals 5 days apart. One control group of 17 mice underwent surgery only without treatments with hypericin and another control group remained untreated (22 mice). Animal survival was then followed.

[6] = tested on: DA-3HI metastatic lesions; experiment: Morphology of metastatic lesions after resection of DA-3HI tumors; type: in vivo, BALB/c mice; conditions: 5 doses of 200 μg/mouse at 5 day intervals, two months after surgery
Protocol: In an effort to understand how hypericin prevents the growth of metastases the experiment was repeated and the morphology of the metastatic lesions then followed. Primary DA-3^HI tumors were induced in BALB/c mice. Surgery was conducted on the tumors when diameters reached 8-10 mm. These mice (17 animals) were divided into two groups, one treated with 5 doses of hypericin 200 μg/mouse at 5 day intervals as previously described (9 animals) and another group served as untreated control (8 mice). The animals were grown for two more months. The mice were then sacrificed and the internal organs examined for metastatic lesions. […] This was evident only when hypericin injections were initiated very early prior to the resection of the primary tumor. These observations indicate that hypericin inhibits angiogenesis (growth of new vasculature). […] Since angiogenesis is primarily mediated by vascular endothelium growth factor (VEGF), hypericin may interfere with either the formation or secretion of VEGF from tumor cells or with its targeting of growth inducing receptors on vascular endothelial cells. […] Interference with the signal transduction pathway that culminates in the production of VEGF might be the mechanism for hypericin or helianthrone derivative-mediated inhibition of the VEGF effect that results in inhibition of metastatic lesion growth.

[7] = tested on: heparanase-induced angiogenesis; experiment: Heparanase-induced angiogenesis in the anterior chamber of the rat eye; type: in vivo, rats; conditions: four i.p. injections of 750 μg, 5 days after heparanase
Protocol: Four rats (250 g each) were given three intraperitoneal injections of hypericin (750 μg per dose in 5 ml water containing 3.5% ethanol) at four day intervals. The following day the animals were anesthetized with xylazine-ketamine and angiogenesis (formation of new blood vessels) was induced by inoculating 2 μl heparanase (30 μg/ml) into the frontal compartment of the eye in the cornea of one of the two eyes in each rat. A fourth intraperitoneal injections of 750 μg hypericin was applied the next day. Two positive control animals received only 2 μl heparanase (30 μg/ml) into the frontal compartment of the eye. Angiogenesis was then allowed to develop for 5 days at which time animals were anesthetized with xylazine-ketamine and examined and photographed under a binocular microscope for development of blood vessels in the anterior chamber of the eye.

Structure (SMILES)	formation of organized microvessels [1]	neovascularization of tumors [2]	effect on the cultures at doses at which dimethyl-TMH kills cells [3]	inhibition of the primary tumor ([4]; DA-3HI breast adenocarcinoma tumors)	survival rate ([4]; day 89, resection plus 2 i.p. injections of 200 μg) [%]	survival rate ([4]; day 89, resection plus 5 i.p. injections of 200 μg) [%]	inhibition of the primary tumor ([5]; SQ-2 anaplastic squamous carcinoma tumors)	mice alive beyond 240 days following tumor cell inoculation ([5]; six i.p. injections 100 μg/mouse prior to surgery, five of 50 μg/mouse post surgery) [%]	mice alive beyond 240 days following tumor cell inoculation ([5]; three i.p. injections 100 μg/mouse prior to surgery, two of 50 μg/mouse post surgery) [%]	protection rates due to hypericin administration ([5]; versus surgery only)	appearance of metastatic lesions in internal organs [6]	blood vessels in the anterior chamber of the eye [7]
Cc1ccc2c(=O)c3c(O)cc(O)c4c5c(O)cc(O)c6c(=O)c7ccc(C)cc7c(c65)c(c2c1)c34 [dimethyl tetrahydroxyhelianthrone, 10,13-dimethyl-1,3,4,6-tetrahydroxyhelianthrone]	inhibition of formation of the organized microvessels	prevented neovascularization	–	–	–	–	–	–	–	–	–	–
Cc1cc(O)c2c(=O)c3c(O)cc(O)c4c5c(O)cc(O)c6c(=O)c7c(O)cc(C)c8c1c2c(c34)c(c78)c65 [hypericin]	inhibition of formation of the organized microvessels	prevented neovascularization	no effect	not inhibited	35	60	not inhibited	40	60	20-40%	much smaller, somewhat more necrotic and devoid of such vasculature	absence of blood vessels

From patent US6867235B2, “Helianthrone derivatives as anti-cancer agents” (Yeda Research and Development Co. Ltd., priority 2000, dated 2005)
